In ChEMBL document CHEMBL5506011, “Discovery of novel and selective farnesoid X receptor antagonists through structure-based virtual screening, preliminary structure-activity relationship study, and biological evaluation” (Eur J Med Chem, 2024):

Columns and labels:
Assay type in all cases: organism-based
[1] = Toxicity in male C57BL/6 mouse assessed as aspartate transaminase (AST) level in serum at 20 mg/kg, ip measured after 4 days; details: in vivo, 96 h, time 4 day
[2] = Toxicity in male C57BL/6 mouse assessed as total bile acid level in serum at 20 to 40 mg/kg, po measured after 4 days; details: in vivo, 96 h, dose 20-40 mg/kg, time 4 day
[3] = Toxicity in male C57BL/6 mouse assessed as alanine transaminase (ALT) level in serum at 20 mg/kg, ip measured after 4 days; details: in vivo, 96 h, time 4 day
[4] = Toxicity in male C57BL/6 mouse assessed as aspartate transaminase (AST) level in serum at 20 to 40 mg/kg, po measured after 4 days; details: in vivo, 96 h, dose 20-40 mg/kg, time 4 day
[5] = Toxicity in male C57BL/6 mouse assessed as total bile acid level in serum at 20 mg/kg, ip measured after 4 days; details: in vivo, 96 h, time 4 day

Measured: Activity

Cc1ccc(C)c(OCCCC(C)(C)C(=O)NCC(=O)c2ccc(O)cc2)c1
Non-Toxic: [1] | [2] | [3] | [4] | [5]
